Assay results taken from PubChem BioAssay AID1259407 (Chemical Carcinogenesis Research Information System (CCRIS), 2018).
Active and inactive are the calls of the source. How the calls were made is not given here.

Tested on: CCRIS mutagenicity, Ames/micronucleus/aberration tests
Assay: CCRIS mutagenicity studies

`COC[CH2][Hg][Cl]` was tested, and the mutagenic call (Test System: AMES SALMONELLA TYPHIMURIUM, Strain/Indicator: TA97, Metabolic Activation: HAMSTER, LIVER, S-9, AROCLOR 1254 (30%), Method: PREINCUBATION) was “inactive; negative”, the mutagenic call (Test System: AMES SALMONELLA TYPHIMURIUM, Strain/Indicator: TA97, Metabolic Activation: NONE, Method: PREINCUBATION) was “inactive; negative” and the mutagenic call (Test System: AMES SALMONELLA TYPHIMURIUM, Strain/Indicator: TA97, Metabolic Activation: RAT, LIVER, S-9, AROCLOR 1254 (30%), Method: PREINCUBATION) was “inactive; negative”. The mutagenic call (Test System: AMES SALMONELLA TYPHIMURIUM, Strain/Indicator: TA98, Metabolic Activation: HAMSTER, LIVER, S-9, AROCLOR 1254 (10%), Method: PREINCUBATION) was “inactive; negative”, the mutagenic call (Test System: AMES SALMONELLA TYPHIMURIUM, Strain/Indicator: TA98, Metabolic Activation: HAMSTER, LIVER, S-9, AROCLOR 1254 (30%), Method: PREINCUBATION) was “inactive; negative” and the mutagenic call (Test System: AMES SALMONELLA TYPHIMURIUM, Strain/Indicator: TA98, Metabolic Activation: NONE, Method: PREINCUBATION) was “inactive; negative”. The mutagenic call (Test System: AMES SALMONELLA TYPHIMURIUM, Strain/Indicator: TA98, Metabolic Activation: RAT, LIVER, S-9, AROCLOR 1254 (10%), Method: PREINCUBATION) was “inactive; negative”, the mutagenic call (Test System: AMES SALMONELLA TYPHIMURIUM, Strain/Indicator: TA98, Metabolic Activation: RAT, LIVER, S-9, AROCLOR 1254 (30%), Method: PREINCUBATION) was “inactive; negative” and the mutagenic call (Test System: AMES SALMONELLA TYPHIMURIUM, Strain/Indicator: TA100, Metabolic Activation: HAMSTER, LIVER, S-9, AROCLOR 1254 (10%), Method: PREINCUBATION) was “inactive; negative”. For the same compound, the mutagenic call (Test System: AMES SALMONELLA TYPHIMURIUM, Strain/Indicator: TA100, Metabolic Activation: HAMSTER, LIVER, S-9, AROCLOR 1254 (30%), Method: PREINCUBATION) was “inactive; negative”, the mutagenic call (Test System: AMES SALMONELLA TYPHIMURIUM, Strain/Indicator: TA100, Metabolic Activation: NONE, Method: PREINCUBATION) was “inactive; negative” and the mutagenic call (Test System: AMES SALMONELLA TYPHIMURIUM, Strain/Indicator: TA100, Metabolic Activation: RAT, LIVER, S-9, AROCLOR 1254 (10%), Method: PREINCUBATION) was “inactive; negative”. The mutagenic call (Test System: AMES SALMONELLA TYPHIMURIUM, Strain/Indicator: TA100, Metabolic Activation: RAT, LIVER, S-9, AROCLOR 1254 (30%), Method: PREINCUBATION) was “inactive; negative”, the mutagenic call (Test System: AMES SALMONELLA TYPHIMURIUM, Strain/Indicator: TA1535, Metabolic Activation: HAMSTER, LIVER, S-9, AROCLOR 1254 (10%), Method: PREINCUBATION) was “inactive; negative” and the mutagenic call (Test System: AMES SALMONELLA TYPHIMURIUM, Strain/Indicator: TA1535, Metabolic Activation: HAMSTER, LIVER, S-9, AROCLOR 1254 (30%), Method: PREINCUBATION) was “inactive; negative”. For the same compound, the mutagenic call (Test System: AMES SALMONELLA TYPHIMURIUM, Strain/Indicator: TA1535, Metabolic Activation: NONE, Method: PREINCUBATION) was “inactive; negative”, the mutagenic call (Test System: AMES SALMONELLA TYPHIMURIUM, Strain/Indicator: TA1535, Metabolic Activation: RAT, LIVER, S-9, AROCLOR 1254 (10%), Method: PREINCUBATION) was “inactive; negative” and the mutagenic call (Test System: AMES SALMONELLA TYPHIMURIUM, Strain/Indicator: TA1535, Metabolic Activation: RAT, LIVER, S-9, AROCLOR 1254 (30%), Method: PREINCUBATION) was “inactive; negative”. The mutagenic call (Test System: AMES SALMONELLA TYPHIMURIUM, Strain/Indicator: TA1537, Metabolic Activation: HAMSTER, LIVER, S-9, AROCLOR 1254 (30%), Method: PREINCUBATION) was “inactive; negative”, the mutagenic call (Test System: AMES SALMONELLA TYPHIMURIUM, Strain/Indicator: TA1537, Metabolic Activation: NONE, Method: PREINCUBATION) was “inactive; negative” and the mutagenic call (Test System: AMES SALMONELLA TYPHIMURIUM, Strain/Indicator: TA1537, Metabolic Activation: RAT, LIVER, S-9, AROCLOR 1254 (30%), Method: PREINCUBATION) was “inactive; negative”.
`O=[N+]([O-])c1ccnc2ccccc12` was tested, and the mutagenic call (Test System: AMES SALMONELLA TYPHIMURIUM, Strain/Indicator: TA1538, Metabolic Activation: RAT, LIVER, S-9, KC500 OR PHENOBARBITAL, Method: LIQUID SUSPENSION) was “active; positive” and the mutagenic call (Test System: UDS RODENT PRIMARY CELLS, Strain/Indicator: THY INCORP (NON-S-PHASE), Metabolic Activation: NONE, Method: AUTORADIOGRAPHY) was “active; positive”.
For `Cn1cnc([N+](=O)[O-])c1-c1ccccc1`, the mutagenic call (Test System: AMES SALMONELLA TYPHIMURIUM, Strain/Indicator: TA100, Metabolic Activation: NONE, Method: STANDARD PLATE) was “inactive; negative”.
In the case of `C/C=C/Cl`, the mutagenic call (Test System: AMES SALMONELLA TYPHIMURIUM, Strain/Indicator: TA100, Metabolic Activation: NONE, Method: DESICCATOR) is reported as “active; positive” and the mutagenic call (Test System: AMES SALMONELLA TYPHIMURIUM, Strain/Indicator: TA100, Metabolic Activation: RAT, LIVER, S-9, PCB OR PHENOBARBITAL, Method: DESICCATOR) is reported as “active; positive”.
